Test results: ChEMBL document CHEMBL1157093, “Lactonecembranoids from Croton laevigatus” (J Nat Prod, 2010)

These compounds were tested on HeLa (assay: Antiproliferative activity against human HeLa cells by MTT assay). Details: Homo sapiens, HeLa; read-out: IC50; call rule not given here.
Assay type: functional, cell-based

Row | Compound | IC50
1 | C/C1=C\CC[C@](C)(O)/C=C/[C@]2(C(C)C)CC/C(=C/CC1)C(=O)O2 (relative stereo) [LAEVIGATLACTON B] | 38.4 µM

Same assay, conditions: hela

Row | Compound | IC50
2 | C/C1=C\CC[C@@](C)(O)/C=C/[C@]2(C(C)C)CC/C(=C\CC1)C(=O)O2 (relative stereo) [LAEVIGATLACTONE A] | Not Active
3 | CC(C)[C@@]12/C=C/[C@@](C)(O)C/C=C/[C@](C)(OO)CC/C=C(\CC1)C(=O)O2 (relative stereo) [LAEVIGATLACTONE F] | Not Active

Now from value to compound:

Row | IC50 | Compound
4 | Not Active | C/C1=C\CC[C@](C)(O)/C=C/[C@]2(C(C)C)CC/C(=C\CC1)C(=O)O2 (relative stereo) [LAEVIGATLACTONE C]
5 | Not Active | C/C1=C\CC/C(C)=C/[C@@H](O)[C@]2(C(C)C)CC/C(=C\CC1)C(=O)O2 (relative stereo) [LAEVIGATLACTONE D]
6 | Not Active | CC(C)[C@@]12/C=C/[C@@](C)(O)C/C=C/[C@](C)(O)CC/C=C(\CC1)C(=O)O2 (relative stereo) [LAEVIGATLACTONE E]
7 | Not Active | C/C1=C\C=C(\C(C)C)CC/C(C(=O)O)=C\CC/C(C)=C/CC1 [NEOCROTOCEMBRANEIC ACID]
